Measurements reported in ChEMBL document CHEMBL4819004, “Discovery of selective CDK9 degraders with enhancing antiproliferative activity through PROTAC conversion” (Eur J Med Chem, 2021).
Active and inactive are the calls of the source. No cut-off for these calls is given here.

Legend:
[1] = target: T1, Protein cereblon/Cyclin-dependent kinase 9 (Homo sapiens, UniProt P50750+Q96SW2); test: Reversible PROTAC activity at CRBN/CDK9 in human MV4-11 cells assessed as CDK9 degradation at 250 nM incubated for 6 hrs followed by drug wash-out for 12 hrs by western blot analysis; assay type: cell-based
[2] = target: T1, Protein cereblon/Cyclin-dependent kinase 9; test: Protac activity at CRBN/CDK9 in human MV4-11 cells assessed as induction of CDK9 degradation incubated for 6 hrs by Western blot assay; assay type: cell-based
MV4-11 [3] = test: Induction of apoptosis in human MV4-11 cells assessed as viable cells at 500 nM after 6 hrs by AnnexinV-FITC/propidium iodide staining based flow cytometry (reference value: 90.1 %); assay type: functional; settings: read-out: Activity
MV4-11 [4] = test: Induction of apoptosis in human MV4-11 cells assessed as early apoptotic cells at 1000 nM after 6 hrs by AnnexinV-FITC/propidium iodide staining based flow cytometry (reference value: 5.36 %); assay type: functional
MV4-11 [5] = test: Induction of apoptosis in human MV4-11 cells assessed as viable cells at 100 nM after 6 hrs by AnnexinV-FITC/propidium iodide staining based flow cytometry (reference value: 90.1 %); assay type: functional; settings: read-out: Activity
MV4-11 [6] = test: Induction of apoptosis in human MV4-11 cells assessed as total apoptotic cells at 1000 nM after 6 hrs by AnnexinV-FITC/propidium iodide staining based flow cytometry (reference value: 9.75 %); assay type: functional
[7] = target: Protein cereblon/Cyclin-dependent kinase 7 (Homo sapiens) (UniProt P50613+Q96SW2); test: PROTAC activity at CRBN/CDK7 in human MV4-11 cells assessed as induction of CDK7 degradation at 31.25 to 500 nM measured after 3 hrs by western blot analysis; assay type: cell-based; settings: dose 31.25-500 nM
MV4-11 [8] = test: Induction of apoptosis in human MV4-11 cells assessed as necrotic cells at 1 nM after 6 hrs by AnnexinV-FITC/propidium iodide staining based flow cytometry (reference value: 0.16 %); assay type: functional
MV4-11 [9] = test: Induction of apoptosis in human MV4-11 cells assessed as viable cells at 30 nM after 6 hrs by AnnexinV-FITC/propidium iodide staining based flow cytometry (reference value: 90.1 %); assay type: functional; settings: read-out: Activity
[10] = target: T1, Protein cereblon/Cyclin-dependent kinase 9; test: PROTAC activity at CRBN/CDK9 in human MV4-11 cells assessed as reduction in CDK9 protein expression at 100 nM measured after 3 hrs by whole proteome mass spectrometry; assay type: cell-based
[11] = target: T1, Protein cereblon/Cyclin-dependent kinase 9; test: PROTAC activity at CRBN/CDK9 in human MV4-11 cells assessed as reduction in RNA PolII CTD phosphorylation at Ser5 residue measured after 6 hrs by western blot analysis; assay type: cell-based; settings: dose 31.25-8000 nM
MV4-11 [12] = test: Induction of apoptosis in human MV4-11 cells assessed as early apoptotic cells at 250 nM after 6 hrs by AnnexinV-FITC/propidium iodide staining based flow cytometry (reference value: 5.36 %); assay type: functional
MV4-11 [13] = test: Induction of apoptosis in human MV4-11 cells assessed as total apoptotic cells at 250 nM after 6 hrs by AnnexinV-FITC/propidium iodide staining based flow cytometry (reference value: 9.75 %); assay type: functional
MCF7 = test: Antiproliferative activity against human MCF7 cells incubated for 72 hrs by MTT assay; assay type: functional, cell-based; settings: MCF7, 72 h
MV4-11 [14] = test: Induction of apoptosis in human MV4-11 cells assessed as late apoptotic cells at 500 nM after 6 hrs by AnnexinV-FITC/propidium iodide staining based flow cytometry (reference value: 4.29%); assay type: functional
[15] = target: Protein cereblon/Cyclin-dependent kinase 6 (Homo sapiens) (UniProt Q00534+Q96SW2); test: PROTAC activity at CRBN/CDK6 in human MV4-11 cells assessed as induction of CDK6 degradation at 31.25 to 500 nM measured after 3 hrs by western blot analysis; assay type: cell-based; settings: dose 31.25-500 nM
[16] = target: T1, Protein cereblon/Cyclin-dependent kinase 9; test: Protac activity at CRBN/CDK9 in human MV4-11 cells assessed as induction of CDK9 degradation by measuring downregulation of MCL-1 protein expression level at 250 nM by western blot analysis; assay type: cell-based; settings: time 1-12 hrs, TDE = time-dependent effect
MV4-11 [17] = test: Induction of apoptosis in human MV4-11 cells assessed as late apoptotic cells at 1000 nM after 6 hrs by AnnexinV-FITC/propidium iodide staining based flow cytometry (reference value: 4.29%); assay type: functional
MV4-11 [18] = test: Induction of apoptosis in human MV4-11 cells assessed as late apoptotic cells at 30 nM after 6 hrs by AnnexinV-FITC/propidium iodide staining based flow cytometry (reference value: 4.29%); assay type: functional
HCT-116 = test: Antiproliferative activity against human HCT-116 cells incubated for 72 hrs by MTT assay; assay type: functional, cell-based; settings: HCT-116, 72 h
[19] = target: Protein cereblon/Cyclin-dependent kinase 1 (Homo sapiens) (UniProt P06493+Q96SW2); test: PROTAC activity at CRBN/CDK1 in human MV4-11 cells assessed as induction of CDK1 degradation at 31.25 to 500 nM measured after 3 hrs by western blot analysis; assay type: cell-based; settings: dose 31.25-500 nM
MV4-11 [20] = test: Antiproliferative activity against human MV4-11 cells incubated for 72 hrs by MTT assay; assay type: functional, cell-based; settings: MV4-11, 72 h
MV4-11 [21] = test: Potency index, ratio of BAY-1143572 IC50 to test compound IC50 for antiproliferative activity against human MV4-11 cells incubated for 72 hrs by MTT assay; assay type: functional
MV4-11 [22] = test: Induction of apoptosis in human MV4-11 cells assessed as total apoptotic cells at 1 nM after 6 hrs by AnnexinV-FITC/propidium iodide staining based flow cytometry (reference value: 9.75 %); assay type: functional
[23] = target: T1, Protein cereblon/Cyclin-dependent kinase 9; test: Protac activity at CRBN/CDK9 in human MV4-11 cells assessed as induction of CDK9 degradation by measuring MCL-1 protein expression level at 250 nM measured after 12 hrs by western blot analysis; assay type: cell-based
MV4-11 [24] = test: Induction of apoptosis in human MV4-11 cells assessed as early apoptotic cells at 100 nM after 6 hrs by AnnexinV-FITC/propidium iodide staining based flow cytometry (reference value: 5.36 %); assay type: functional
[25] = target: Cyclin-dependent kinase 9 (Homo sapiens) (UniProt P50750); test: Inhibition of human full length recombinant CDK9 expressed in bacterial expression system assessed as remaining enzyme activity at 1 uM by competitive binding Kinome scan analysis

COc1cc(F)ccc1-c1ncnc(Nc2cccc(CS(C)(=O)=NC(=O)CCCCCCCC(=O)NCCNc3cccc4c3C(=O)N(C3CCC(=O)NC3=O)C4=O)c2)n1 (configuration not stated)
Activity [1]: Active
DC50 [2]: 7.62 nM
viability at 0.5 µM (MV4-11 [3]): 31.3%
Activity (MV4-11 [4]): 54.4%
viability at 0.1 µM (MV4-11 [5]): 72.7%
Activity (MV4-11 [6]): 80.4%
Activity [7]: inactive
Activity (MV4-11 [8]): 0.77%
viability at 0.03 µM (MV4-11 [9]): 77.6%
Activity [10]: Active
Activity [11]: Dose-Dependent Effect
Activity (MV4-11 [12]): 45.1%
Activity (MV4-11 [13]): 59.4%
IC50 (MCF7): 3120 nM
Activity (MV4-11 [14]): 13.7%
Activity [15]: inactive
Activity [16]: Tde
Activity (MV4-11 [17]): 16%
Activity (MV4-11 [18]): 14.8%
IC50 (HCT-116): 3080 nM
Activity [19]: inactive
IC50 (MV4-11 [20]): 25 nM
Ratio IC50 (MV4-11 [21]): 20
Activity (MV4-11 [22]): 22.1%
Activity [23]: 0%
Activity (MV4-11 [24]): 11.5%
Activity [25]: < 10%
